The test system of assay [1] is K562 cells. Kind of assay: Flow cytometric analysis of mitochondrial mass (Mitotracker). The assay is classed as cell-based, human. Particulars: FIG. 1C. As for the experimental part:
(§1) Fibroblasts (70-95% confluent) were treated with 5 mM 4PBA (1 mM for JNK inhibition studies), 600 μM HU, 200 nM TSA, or 5 μM SFN unless otherwise specified.
(§2) K562 cells were incubated with 50 nM Mitotracker Green FM, 300 nM Mitotracker Deep Red 633 (Invitrogen), or PBS as a negative control for 15 min at 37° C. or stained with anti-Pex14 using Caltag Fix and Perm reagents (Invitrogen) following the manufacturer's instructions. Stained cells were suspended in 0.5 mL of 1% paraformaldehyde/PBS and subjected to flow cytometric analysis (FACScan machine, Becton Dickinson, Franklin Lakes, N.J.).
(§3) K562 cells were treated with SB and HU for four to ten days. […] (n≧3 unless otherwise noted).
To determine whether the induction of mitochondrial biogenesis by SB or HU treatment was necessary for the induction of HbF-producing cell production, K562 cells were treated with SB or HU in the presence or absence of AA. […] After two to four days of drug treatment with or without AA, mitochondrial mass was measured using Mitotracker, a mitochondrial stain. Fold change (drug treated/control) is shown. […] After four days of drug treatment with or without AA, cells were stained with DAF. The relative number of cells producing HbF (DAF stained cells) were plotted. […] After eight to ten days of drug treatment, peroxisome proliferation was measured using an antibody against the peroxisomal membrane protein, PEX14 and a FITC-labeled secondary antibody. Fold change (drug treated/control) is shown. In FIGS. 1C, 1D, and 1E, the * represents a statistically significant increase in a measurement between drug treated and control samples or a statistically significant decrease in a measurement between drug treated and drug treated samples in the presence of AA (p≦0.05) (Bars=SEM). This finding indicates dependence of the beneficial effect (i.e., elevated HbF levels) on induced mitochondrial biogenesis. Thus, the therapeutic effects observed in SCD may involve the pharmacological induction of mitochondrial biogenesis by SB or HU. […]

The test system of assay [2] is K562 cells. Nature of the assay: HbF-producing cell production (DAF staining). The assay is classed as cell-based, human. Particulars: FIG. 1D. As for the experimental part:
as §1
K562 cells were suspended in 1.1 mL media and 240 μL of DAF [working solution 50 μL 2,7diaminofluorene (DAF) stock (50 μg DAF in 5 mL 90% glacial acetic acid), 50 μL 30% hydrogen peroxide, and 2.5 ml 200 mM Tris-HCl, pH 7.0]. DAF stained hemoglobinized cells were scored using a hemocytometer.
as §3
To determine whether the induction of mitochondrial biogenesis by SB or HU treatment was necessary for the induction of HbF-producing cell production, K562 cells were treated with SB or HU in the presence or absence of AA. […] After two to four days of drug treatment with or without AA, mitochondrial mass was measured using Mitotracker, a mitochondrial stain. Fold change (drug treated/control) is shown. […] After four days of drug treatment with or without AA, cells were stained with DAF. The relative number of cells producing HbF (DAF stained cells) were plotted. […] After eight to ten days of drug treatment, peroxisome proliferation was measured using an antibody against the peroxisomal membrane protein, PEX14 and a FITC-labeled secondary antibody. Fold change (drug treated/control) is shown. In FIGS. 1C, 1D, and 1E, the * represents a statistically significant increase in a measurement between drug treated and control samples or a statistically significant decrease in a measurement between drug treated and drug treated samples in the presence of AA (p≦0.05) (Bars=SEM). This finding indicates dependence of the beneficial effect (i.e., elevated HbF levels) on induced mitochondrial biogenesis. Thus, the therapeutic effects observed in SCD may involve the pharmacological induction of mitochondrial biogenesis by SB or HU.
K562 cells were treated for four days with HU in the presence or absence of SP600125 or PBS as a control (CON). […]

For assay [3], the system named is K562 cells. Nature of the assay: Flow cytometric analysis of peroxisome proliferation (PEX14). Particulars: eight to ten days, FIG. 1E. It counts as cell-based, human. The method, then:
as §1, §2, §3
To determine whether the induction of mitochondrial biogenesis by SB or HU treatment was necessary for the induction of HbF-producing cell production, K562 cells were treated with SB or HU in the presence or absence of AA. […] After two to four days of drug treatment with or without AA, mitochondrial mass was measured using Mitotracker, a mitochondrial stain. Fold change (drug treated/control) is shown. […] After four days of drug treatment with or without AA, cells were stained with DAF. […] After eight to ten days of drug treatment, peroxisome proliferation was measured using an antibody against the peroxisomal membrane protein, PEX14 and a FITC-labeled secondary antibody. […]
In general terms: Flow cytometry measures light scatter and fluorescence of single cells or particles in a stream.

For assay [4], the system named is HbF. Particulars: Keefer et al., 2006; cited from earlier work.
The test system of assay [5] is XALD fibroblasts. Nature of the assay: Inhibition studies: ATP5B immunofluorescence of drug-induced mitochondrial biogenesis. The assay is classed as cell-based, human. Conditions: inhibitor added before 4PBA, HU, TSA or SFN; XALD fibroblasts. As for the experimental part:
Performed as described in Watkins et al., 1995 using 4% formaldehyde, 1% Triton X-100, primary antibody anti-ATP5B (Millipore, Billerica, Mass.) or anti-ABCD3 (Invitrogen, Carlsbad, Calif.), and secondary antibody sheep anti-mouse IgG FITC-conjugated (Santa Cruz Biotechnology, Santa Cruz, Calif.) or goat anti-rabbit IgG rhodamine-conjugated (Jackson ImmunoResearch, West Grove, Pa.).
Antimycin A (10 ng/mL), LY294002, PD98059, RO-31-8425, SB203580, SP600125, and L-NAME were obtained from Sigma. Compound C was from EMD Biosciences (Darmstadt, Germany). Human fibroblasts were treated with each inhibitor. Then, 45-75 min later, either 4PBA, HU, TSA, or SFN was added. Cells were stained four to six days after treatment with one of the small molecules. As a control for inhibitors dissolved in DMSO, fibroblasts were treated with an equivalent amount of DMSO in the absence of inhibitor. […]
In FIGS. 2A-B, the JNK inhibitor SP600125 (10 μM+inh) was utilized. […] XALD fibroblasts were treated with each drug for four days with or without SP600125. (400× magnification). […] Normal human fibroblasts were treated with each of the small four molecules with or without SP600125 for six days. Quantitative in-cell western analyses were performed using anti-ATP5B.

The subject of assay [6] is FL-SMN mRNA. Nature of the assay: RT-PCR of FL-SMN and total SMN mRNA in spinal muscular atrophy fibroblasts. The assay is classed as cell-based, human. Particulars: effect of co-treatment with stress pathway inhibitor; FIG. 8B. As for the experimental part:
Following the manufacturer's protocols, DNase I-treated cDNA was synthesized using Superscript III or Thermoscript reverse transcriptase (Invitrogen). PCR reactions were performed in duplicate on the Roche Lightcycler 3.5 (Basel, Switzerland) or the Bio-Rad iCycler (Hercules, Calif.) using Quantitech SYBR green PCR mix (Qiagen, Valencia, Calif.). GeNorm software calculated a normalization factor for each sample using the relative amounts of at least two of the following reference genes, β2-microglobulin, […], actin, and/or eukaryotic elongation factor 1A (Vandesompele et al., 2002). Primers for the various experiments described herein are listed below.
Type I and type III spinal muscular atrophy (SMA I or SMA III) fibroblasts were treated with SFN for the indicated times. The relative fold increase in the ratio of FL-SMN/total SMN transcripts compared with the untreated cell line (normalized to 1) is plotted. Cell lines from left to right are GM09677, GM00232 and 2906. N≧2 independent experiments.
Spinal muscular atrophy fibroblasts were treated with 1.5 mM SFN alone for 51 hr. (SMA I, GM09677) or treated with 0.5 mM SFN for 8 hr. (SMA III, 2906) with or without […] SP600125 (JNK inhibitor), 2.5 mM 3-methyladenine (autophagy inhibitor, APG), […] antimycin A (mitochondrial inhibitor, MITO) or […] sirtinol (SIRT1 inhibitor). The fold increases in FL-SMN expression compared with either GAPDH or total SMN expression and the fold increase in total SMN expression compared with GAPDH expression after SFN treatment is plotted. Untreated values were normalized to 1 and are indicated by the horizontal line. (n=1 per cell line, performed in duplicate)
To determine which stress pathways are necessary for the increase in FL-SMN production, spinal muscular atrophy fibroblasts were co-treated with SFN and either SP600125, an inhibitor of the JNK pathway (Bennett et al., 2001), 3-methyladenine, an inhibitor of the autophagy pathway (Seglen et al., 1982), antimycin A, a mitochondrial inhibitor (Ranganathan et al., 2009), or sirtinol, an inhibitor of SIRT1 activity (Grozinger et al., 2001). […] SIRT1, an NAD+-dependent deacetylase, is known to regulate cellular stress responses, cellular metabolism and cellular survival (Salminen et al., 2009). Specifically, SIRT1 inhibition reduces the induction of HSR genes (Westerheide et al., 2009); SIRT1 activity enhances SOD2 expression (Anastasiou et al., 2006); SIRT1 negatively regulates the mammalian target of rapamycin triggering autophagy (Haigis et al., 2010); and SIRT1 activates mitochondrial biogenesis via the stress-responsive transcription factor PGC1a (Yu et al., 2009). The yeast ortholog Sir2 is necessary for the induction of mitochondrial biogenesis by 4PBA or HU in Saccharomyces cerevisiae (Cha 2010). […] However, SIRT1 can be activated by various post-translational changes. Therefore, the potential involvement of SIRT1 in the therapeutic effects of these drugs by inhibition studies was evaluated.

For assay [7], the system named is XALD fibroblasts. Nature of the assay: Fatty acid β-oxidation of 1-14C-labeled fatty acids. The assay is classed as cell-based, human. As for the experimental part:
Fatty acid β-oxidation activity in XALD fibroblasts was determined by measuring their capacity to degrade 1-^14C-labeled fatty acids to water-soluble products as described in McGuiness et al., 2003.
4PBA-induced peroxisomal VLCFA β-oxidation (degradation) is dependent on mitochondrial long chain fatty acid (LCFA) β-oxidation (McGuinness et al., 2003). […] Antimycin A (AA) is a cytochrome c reductase inhibitor that inhibits the mitochondrial electron transport chain, mitochondrial biogenesis, and thus, cellular respiration (Ranganathan et al., 2009). […] XALD fibroblasts were treated with 4PBA in the presence or absence of antimycin A (AA), a cytochrome c reductase inhibitor, for five days and β-oxidation levels of LCFA (C16:0) and VLCFA (C24:0) levels were measured.

The mark [8] stands for this setting: K562 cells, 1.2 mM SB or 100 μM HU.

Consider eleven compounds from patent US8937050B2, “Methods and compositions for treatment of autism” (The Johns Hopkins University, priority 2011, dated 2015).

Take `CCCC(=O)[O-].[Na+]` [SB, Sodium butyrate]: the mitochondrial mass result in assay [1] (setting [8]) is given as “significantly increased”. Besides, the “number of HbF-producing cells” value in assay [2] (setting [8]) was “significantly increased”. Also, the peroxisomal proliferation entry in assay [3] is recorded as “significantly increased”. For the same compound, the HbF levels entry in assay [4] was “increased”.

With `COc1cccc(-c2cc(=O)c3ccccc3o2)c1N` [PD98059], the “Inhibits Mitochondrial Biogenesis?” value in assay [5] is given as “no”.

`Cn1cnc(N)c2ncnc1-2` [3-methyladenine]: the “increase in FL-SMN transcript levels in SFN-treated spinal muscular atrophy fibroblasts” value (“increase in FL-SMN transcript levels” for short) in assay [6] is “prevented”.

Consider `Cn1cc(C2=C(c3c4n(c5ccccc35)CCC(CN)C4)C(=O)NC2=O)c2ccccc21` (stereo not drawn) [RO-21-8425], for which the “Inhibits Mitochondrial Biogenesis?” value in assay [5] was “no”.

`COC(=O)[C@@H](N)CCCNC(=N)N[N+](=O)[O-]` [L-NAME]: the “Inhibits Mitochondrial Biogenesis?” value in assay [5] is reported as “no”.

Regarding Antimycin A [AA], in assay [7] (4PBA in the presence of AA), the “induction of peroxisomal VLCFA β-oxidation” value was “blocked”. For the same compound, the “4PBA-induction of mitochondrial LCFA β-oxidation” value in assay [7] (in the presence of AA (10 ng/mL)) is on record as “inhibited”. Also, in assay [1] (effect of co-treatment with AA), the “induction of mitochondrial biogenesis by SB or HU treatment” value is on record as “significantly inhibited”. Also, the “induction of HbF-producing cells by SB or HU treatment” value in assay [2] (effect of co-treatment with AA) is on record as “significantly inhibited”. Moreover, the “increase in FL-SMN transcript levels” value in assay [6] was “prevented”.

For the compound `c1cc(-c2cnn3cc(-c4ccc(OCCN5CCCCC5)cc4)cnc23)ccn1` [compound C], the “Inhibits Mitochondrial Biogenesis?” value in assay [5] is given as “no”.

For the compound `COc1cc(C[C@H]2C(=O)OC[C@@H]2Cc2ccc(OC)c(OC)c2)ccc1O` [arctigenin], the “Inhibits Mitochondrial Biogenesis?” value in assay [5] is listed as “no”.

`CC(NC(=O)c1ccccc1/N=C/c1c(O)ccc2ccccc12)c1ccccc1` (stereo not drawn) [sirtinol]: the “increase in FL-SMN transcript levels” value in assay [6] is on record as “prevented”.

On to `N#CC(=C(/N)Sc1ccccc1N)/C(C#N)=C(\N)Sc1ccccc1N` [U0126], for which the “Inhibits Mitochondrial Biogenesis?” value in assay [5] is given as “no”.

As for `C[S+]([O-])c1ccc(-c2nc(-c3ccncc3)c(-c3ccc(F)cc3)[nH]2)cc1` (stereo not drawn) [SB203580], in assay [5], the “Inhibits Mitochondrial Biogenesis?” value is listed as “no”.
